Source: ChEMBL document CHEMBL3507680, “University of Dundee, Gates Library screen for HepG2 cell viability”

Test: Human HepG2 cell viability assay in 384 well format
Format: toxicity, cell-based
Parameters: dose 125 nL, time 70.5 hour; cytotoxicity at 70.5 h: concentration not given beside the values
Conditions: HepG2 cells, read-out: Inhibition

SMILES | cytotoxicity at 70.5 h
Cc1nn(C)c(C)c1CCC(=O)N1CCCC1Cn1cccn1 (stereo not drawn) | -2.38%
CN(C)CCN1CCO[C@H]2CCN(C(=O)c3cccs3)CC[C@@H]21 | 32.1%
OCc1ccc(OCC(F)(F)F)cc1 | -8.76%
CCc1ccc(C2CCCCCN2C(=O)CNC(=O)C2CC2)o1 (stereo not drawn) | -1.46%
CC(C)c1nc(CN2CCCN(Cc3nnc(C4CC4)o3)CC2)no1 | 1.11%
CC(C)(C)c1n[nH]c(C2CN(C(=O)c3cnc[nH]3)CCO2)n1 (stereo not drawn) | -7.66%
Cc1cccc(CN2CC3(CCN(C4CCOC4)CC3)OCC2=O)n1 (stereo not drawn) | 0.761%
CC1CN(Cc2cccnc2)CCN1c1ccc2nncn2n1 (stereo not drawn) | -8.86%
CC(C)c1nccn1C1CCCN(C(=O)CN(C)C2CC2)C1 (stereo not drawn) | -2.03%
Cc1ncc2c(n1)C1(CCN(C(=O)C3CC3)CC1)OCC2 | -9.75%
CNc1cncc(C2CCCN2S(=O)(=O)c2cccc(F)c2)n1 (stereo not drawn) | -2.79%
CCc1cnc(CN(C)C(=O)NC2CCN(C)C2=O)s1 (stereo not drawn) | -7.59%
Cc1ncc(CNC(=O)CCc2cccc(F)c2)c(C2CCCN2C)n1 (stereo not drawn) | -2.51%
Cc1n[nH]c(=O)c2c(NC(=O)CN3CCOCC3)oc(C)c12 | -8.38%
COc1ccc(F)cc1C(C)NC(=O)Nc1nncs1 (stereo not drawn) | 4.1%
CN(C)c1cc(C2CCN(C(=O)c3cnn(C)c3)CC2)ccn1 | -4.9%
Cc1ccsc1CNC1CCCc2c1cnn2C (stereo not drawn) | -2.66%
Cc1cc(C[C@@H]2CCC[C@H]2NCc2cc(F)ccc2F)on1 | -1.78%
Cc1occc1C(=O)N1CCC2(CC1)C(c1cnn(C)c1)CC(=O)N2C (stereo not drawn) | 4.52%
Cc1cc(C(=O)NC(C)c2nnn[nH]2)c2cccc(C)c2n1 (stereo not drawn) | -0.0967%
COc1ccc(C[C@H]2CN(Cc3ccoc3)CC[C@@H]2OC)cc1 | -2.46%
CC(C)(C)NC(=O)CN1CCCNCC1 | -0.58%
O=C(NCc1cccs1)[C@H]1CC[C@@H]2[C@@H](CCN2c2ncccn2)O1 | 2.87%

SMILES | cytotoxicity at 70.5 h
CC(C)Nc1n[nH]c2nc(C3CCN(C(=O)c4ccccn4)C3)ccc12 (stereo not drawn) | 8.59%
CC(=O)N(C)C(c1cccnc1)c1ccc(F)c(F)c1 (stereo not drawn) | 23.1%
NC1(c2nc(-c3ccccc3)cc(=O)[nH]2)CCCCC1 | -10.8%
Cc1noc(C)c1CNc1cc(N2CCCC2CO)ncn1 (stereo not drawn) | -5.89%
CN(C)CCN(Cc1cccc(F)c1)C(=O)c1ccc2nccn2c1 | -43.4%
CCc1nc(-c2noc3ccc(C(=O)N(C)CCOC)cc23)co1 | -12.2%
Cn1cc(N2CCC3(CCN(Cc4cccnc4)C3)C2=O)cn1 (stereo not drawn) | -17.1%
Cn1cc(CN2CCC[C@]3(C[C@H](Oc4ccccn4)CO3)C2)cn1 | -7.75%
Cc1nccn1CCN(C)c1nc(-c2cccnc2)nc2c1CCNC2 | -3.49%
Cc1cccc(N2Cc3nc(=O)n(Cc4cccc(F)c4)n3C2=O)c1 | -18%
O=C1N(C2CCCCC2)C[C@H]2CN(C3CCC3)CCN12 | 9.88%
O=C(NCC1(Sc2ccccc2)CC1)c1cc[nH]n1 | -1.79%
CC(=O)NCCNC(=O)NCCCc1cccc(F)c1 | -5.39%
O=c1c(-c2ccnc(N3CCCC[C@@H]3CO)n2)cnc2sccn12 | -4.35%
CC(Cn1cccn1)NS(=O)(=O)Cc1ccccc1 (stereo not drawn) | 24.2%
COCCN1C(=O)CCC12CCCN(Cc1ccccc1F)C2 (stereo not drawn) | 31.9%
CC(C)N(C)S(=O)(=O)c1ccc2c(c1)CCN(C(=O)c1cscn1)C2 | -20.3%
Cc1nc(N(C)C)nc(N(C)Cc2cnccn2)c1C | -9.41%
Cc1cncc(C2CCN(Cc3cnc(C)nc3)CC2)n1 | -7.22%
Cc1cnn(CC2CCCCN2CC(=O)Nc2nc(C)cs2)c1 (stereo not drawn) | -2.94%
CCC1(CC)Cc2ccccc2-c2nc(NCCO)[nH]c(=O)c21 | -1.26%
O=C(c1nnn(-c2ccc(Cl)cc2)n1)N(CCO)Cc1ccccc1 | -1.6%
CCOCc1nc2c(c(N3CC=CC3)n1)CCN(CC1CC1)CC2 | 9.81%

SMILES | cytotoxicity at 70.5 h
O=C1CN(Cc2ccc3ccccc3n2)CCN1C1CCCC1 | -1.73%
c1ccc2c(Cc3nnc([C@H]4CCN(CC5CC5)C4)o3)c[nH]c2c1 | -0.383%
CC(NC(=O)Nc1ccccc1CN1CCOCC1)c1nnc(N)s1 (stereo not drawn) | -11.9%
CCc1ccccc1OCCN(C)C(=O)CCN1CCCCO1 | -7.24%
Cc1cc(N(C)C)nc(C2(C)CCCN2CC(N)=O)n1 (stereo not drawn) | -2.11%
COCC(=O)N1CC[C@H]2C[C@H](c3nc(C)no3)O[C@@H]2C1 | -7.44%
Cc1nc2[nH]cnc(NCCN3CCOCC3)c-2n1 | -1.72%
CCc1nccn1C1CCCN(C(=O)c2csc(C3CC3)n2)C1 (stereo not drawn) | -22%
COc1ccccc1C(C)NC(=O)NCCC(=O)NC1CCCCC1 (stereo not drawn) | -16.1%
CS(=O)(=O)NCc1cn2c(n1)CN(C(=O)c1ccc[nH]1)CC2 | -9.01%
COc1ccc(C(N)=O)cc1NCc1noc(-c2ccsc2)n1 | -10.8%
Cc1ccc(C(=O)NCCNS(C)(=O)=O)c(=O)[nH]1 | -3.54%
CC(C)(C)CC(=O)N1[C@@H](c2ccco2)[C@@H](CO)C[C@]12CCCCNC2=O | -5.67%
CCNC(=O)N1CCCCC1CCO (stereo not drawn) | 12.6%
O=C(NC1CC1)C1CCN(c2nc3nc[nH]c(=O)c3s2)CC1 | -20.8%
CN(C)c1cccc(C(=O)N2CCn3c(nnc3-c3ccccc3)C2)c1 | -7.74%
COc1ccc(NC(=O)Cn2cc(-c3ccccc3)ncc2=O)cn1 | -6.77%
CC(C)N1CCN(C(=O)c2ccccc2NCc2cccnc2)CC1 | -5.19%
CN(C)C(=O)CN1CC[C@@H]2O[C@@H](COCc3cccnc3)CC[C@@H]21 | -1.43%
CC(C)Oc1ccc(CNC(=O)NCc2ccncc2)cc1F | -10.8%
CN(C)c1ccc(C(=O)N2CCC(c3cc4cnccc4[nH]3)CC2)cc1 | -0.667%
CC(=O)NC1CCN(c2cnc(C3CCNCC3)cn2)CC1 | -3.96%
O=C(c1ncccn1)N1C[C@H]2CCC[C@@]2(COc2ccccn2)C1 | -6.17%

SMILES | cytotoxicity at 70.5 h
CC(Cc1ccc2c(c1)OCO2)c1cn(CCc2c[nH]cn2)nn1 (stereo not drawn) | -6.47%
O=C(c1ccc(-c2ccc(O)nc2)s1)N1CCCCC1 | -8.32%
CCNC(=O)CN1CCN(Cc2nc3c(F)cccc3n2CC)CC1 | 0.0175%
c1cc(CN2C[C@H](OCC3CCOCC3)[C@H]3COC[C@H]32)co1 | 12.4%
CC1CN(C)c2ccccc2CN1C(=O)c1ccncc1 (stereo not drawn) | 0.805%
Cn1cc(N2CCN(c3ccc(C#N)c(Cl)c3)CC2=O)cn1 | -14.1%
CCNc1cc2c(nn1)CCN(C(=O)c1ccc(-n3cccn3)nc1)C2 | -15.9%
Cc1cc(C)c(N(CC(O)CNCc2ccco2)S(C)(=O)=O)c(C)c1 (stereo not drawn) | -7.18%
Cc1ccc(NC(=O)CS(=O)(=O)NC2CCC(C)CC2)nc1 (stereo not drawn) | -2.47%
CC(=O)N[C@@H]1CN(C(=O)CC2CC2)C[C@H]1O | -4.46%
CCCC(=O)N1CCCC(c2cc3cccnc3c(O)n2)C1 (stereo not drawn) | -13.1%
CC(=O)N1CC[C@H]2[C@H](C[C@@H](Cn3cncn3)N2c2nccs2)C1 | -8.31%
CC(=O)OCC1CCCCN1C(=O)c1ccc(Cn2ccnc2)o1 (stereo not drawn) | 22.8%
CN(Cc1nncn1C)c1nccc(N2CCC(O)CC2)n1 | -4.03%
CN(C)c1ccc(-c2cc(=O)n3c(n2)CCCCC3)cc1 | -11%
O=C(CCc1ccco1)NCC1CCCN1c1cccnn1 (stereo not drawn) | -2.58%
CC(NC(=O)CCCc1nc(C(C)(C)C)no1)c1nnc2n1CCC2 (stereo not drawn) | -2.92%
Cc1c(C2SCC(=O)Nc3c2c(O)nn3C2CCCC2)cnn1C (stereo not drawn) | -22.8%
CCO[C@H]1CO[C@@]2(CCN(Cc3ccc4c(c3)OCO4)C2)C1 | -9.21%
Cc1nc(C)n(CC2CCCN(CC(=O)Nc3c(C)n[nH]c3C)C2)n1 (stereo not drawn) | -7.16%
CC(C)c1nc2c(n1C)CCN(Cc1nc(-c3cccs3)no1)C2 | -9.62%
O=C(NCC1CC1)C1CCC2(CN(C(=O)c3ccno3)C2)O1 (stereo not drawn) | -13.9%
CN(Cc1cn2c(n1)CN(CC1CCOC1)CC2)Cc1ccco1 (stereo not drawn) | 1.38%

SMILES | cytotoxicity at 70.5 h
Cc1cc(CN2C[C@@H]3COC[C@]3(CNC(=O)N(C)C)C2)no1 | -1.07%
COc1ccccc1OCCCN1C(=O)CCNC1=O | 32%
NC(=O)CN1CCC(OCc2ccc(Cl)c(Cl)c2)CC1 | -1.02%
CSCC(=O)NS(=O)(=O)c1ccc(C#N)c(C(F)(F)F)c1 | -8.4%
CCN(CC)S(=O)(=O)c1cccc(C(=O)N(C)Cc2ccsc2)c1 | 14.5%
CCN1C[C@@H]2CN(C(=O)C3CC=CC3)C[C@@H]2C1=O | 28%
COc1cccc(-n2nnc(C(=O)N3CCN(C(C)=O)CC3)c2C)c1 | -6.81%
Cc1cnc(C)c(N2CCN(CC3CCCO3)CC2)n1 (stereo not drawn) | -6.94%
c1ccc(-c2nc(CN3CCOC(Cn4cccn4)C3)cs2)cc1 (stereo not drawn) | -2.87%
Cc1nn(C2CCCC2)c2nc(C(C)(C)CN3CCN(C)CC3)[nH]c12 | -2.47%
Cc1nn(C)c(N(C)C)c1CNCc1cccc(Cl)c1 | 0.245%
CCN1CCN(c2ccc(F)cc2C(C)NCc2ccncc2)CC1 (stereo not drawn) | -1.51%
CN(Cc1ccco1)C(=O)NCc1nnc2n1CCC2 | -8.06%
Cc1nc(O)cc(C2CCCN2CCO)n1 (stereo not drawn) | -5.13%
O=C(NCCOc1ccc(Cl)cn1)Nc1ccccn1 | 0.428%
O=C1NCCCCC1Sc1nnc(C2CC2)n1C1CC1 (stereo not drawn) | -5.95%
Cc1ccc(-c2cc(C(=O)NCCCc3csc(N)n3)[nH]n2)s1 | -3.12%
Cc1ncc(CN2CCOC(CNc3cccnn3)C2)s1 (stereo not drawn) | 2.68%
Cc1nnc(CN(C)CC2CCCCC2)o1 | -11.8%
Cc1nn(C)c(C)c1-c1cc(-c2cnn(C)c2C2CC2)c(C#N)c(N)n1 | -12.7%
CS(=O)(=O)NC[C@H]1OC[C@@H]2CCN(Cc3ccc(F)cc3)C[C@@H]21 | 16.9%
